{
  "source": "paper PMC7316778",
  "about": "(Nature Communications, 2020)",
  "key": {"[1]": {"molecular_target": "LTK (TYK1) (Homo sapiens, UniProt P29376)", "sequence (P29376 17-864)": "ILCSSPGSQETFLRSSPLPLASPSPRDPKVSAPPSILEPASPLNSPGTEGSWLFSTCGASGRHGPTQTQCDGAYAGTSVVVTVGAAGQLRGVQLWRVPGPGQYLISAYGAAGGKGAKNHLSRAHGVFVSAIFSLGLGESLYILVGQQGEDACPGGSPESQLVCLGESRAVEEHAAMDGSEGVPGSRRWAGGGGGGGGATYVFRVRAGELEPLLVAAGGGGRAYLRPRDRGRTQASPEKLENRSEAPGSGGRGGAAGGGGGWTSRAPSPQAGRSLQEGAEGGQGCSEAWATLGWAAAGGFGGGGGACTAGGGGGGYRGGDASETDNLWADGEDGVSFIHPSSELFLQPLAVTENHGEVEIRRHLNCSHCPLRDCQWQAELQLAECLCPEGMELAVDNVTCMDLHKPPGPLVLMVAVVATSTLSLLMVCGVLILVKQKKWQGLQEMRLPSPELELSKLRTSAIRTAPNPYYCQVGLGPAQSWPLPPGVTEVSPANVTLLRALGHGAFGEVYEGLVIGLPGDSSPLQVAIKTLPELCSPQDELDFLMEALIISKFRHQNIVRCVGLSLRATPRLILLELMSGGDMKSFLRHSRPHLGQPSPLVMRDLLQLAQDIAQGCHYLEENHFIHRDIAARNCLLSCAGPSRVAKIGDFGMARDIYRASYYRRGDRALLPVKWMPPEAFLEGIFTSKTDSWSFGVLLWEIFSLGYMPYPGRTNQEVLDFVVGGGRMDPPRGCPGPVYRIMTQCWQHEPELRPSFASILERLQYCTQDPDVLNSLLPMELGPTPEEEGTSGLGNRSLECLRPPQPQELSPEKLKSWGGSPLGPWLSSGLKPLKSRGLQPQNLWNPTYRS", "assay": "SelectScreen kinase assay"}, "[2]": {"molecular_target": "SRC (Homo sapiens, UniProt P12931)", "assay": "SelectScreen kinase assay"}, "[3]": {"molecular_target": "IRAK1 (Homo sapiens, UniProt P51617)", "assay": "SelectScreen kinase assay"}, "[4]": {"molecular_target": "ROS1 (Homo sapiens, UniProt P08922)", "assay": "SelectScreen kinase assay"}, "[5]": {"molecular_target": "CDK9/cyclin K (Homo sapiens, UniProt P50750)", "assay": "SelectScreen kinase assay", "settings": "for Inhibition at 1 µM (%): CDK9/cyclin K, LanthaScreen Binding"}, "[6]": {"molecular_target": "T1, EEF2K (Homo sapiens, UniProt O00418)", "T1 sequence (O00418 1-725)": "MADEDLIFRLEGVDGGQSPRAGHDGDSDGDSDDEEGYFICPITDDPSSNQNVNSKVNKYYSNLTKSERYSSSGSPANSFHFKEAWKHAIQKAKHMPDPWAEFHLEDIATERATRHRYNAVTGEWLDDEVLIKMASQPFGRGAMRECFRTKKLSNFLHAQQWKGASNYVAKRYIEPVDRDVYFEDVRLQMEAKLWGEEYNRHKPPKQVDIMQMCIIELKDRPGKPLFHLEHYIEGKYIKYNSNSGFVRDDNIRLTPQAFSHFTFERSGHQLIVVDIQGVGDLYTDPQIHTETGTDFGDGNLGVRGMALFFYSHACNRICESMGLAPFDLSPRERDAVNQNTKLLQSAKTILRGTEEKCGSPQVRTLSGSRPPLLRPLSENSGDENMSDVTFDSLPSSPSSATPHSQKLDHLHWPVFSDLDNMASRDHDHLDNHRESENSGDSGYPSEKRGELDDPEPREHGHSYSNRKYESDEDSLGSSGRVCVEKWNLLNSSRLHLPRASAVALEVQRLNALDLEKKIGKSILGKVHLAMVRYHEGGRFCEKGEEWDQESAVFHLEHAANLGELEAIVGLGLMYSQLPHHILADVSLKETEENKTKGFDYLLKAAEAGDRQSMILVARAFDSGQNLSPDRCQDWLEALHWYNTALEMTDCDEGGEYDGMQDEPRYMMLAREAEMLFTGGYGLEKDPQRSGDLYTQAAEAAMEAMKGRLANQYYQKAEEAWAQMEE", "assay": "SelectScreen kinase assay"}, "[7]": {"molecular_target": "endogenous FES^S700C (Homo sapiens, UniProt P07332, S700C)", "sequence (P07332 whole entry S700C)": "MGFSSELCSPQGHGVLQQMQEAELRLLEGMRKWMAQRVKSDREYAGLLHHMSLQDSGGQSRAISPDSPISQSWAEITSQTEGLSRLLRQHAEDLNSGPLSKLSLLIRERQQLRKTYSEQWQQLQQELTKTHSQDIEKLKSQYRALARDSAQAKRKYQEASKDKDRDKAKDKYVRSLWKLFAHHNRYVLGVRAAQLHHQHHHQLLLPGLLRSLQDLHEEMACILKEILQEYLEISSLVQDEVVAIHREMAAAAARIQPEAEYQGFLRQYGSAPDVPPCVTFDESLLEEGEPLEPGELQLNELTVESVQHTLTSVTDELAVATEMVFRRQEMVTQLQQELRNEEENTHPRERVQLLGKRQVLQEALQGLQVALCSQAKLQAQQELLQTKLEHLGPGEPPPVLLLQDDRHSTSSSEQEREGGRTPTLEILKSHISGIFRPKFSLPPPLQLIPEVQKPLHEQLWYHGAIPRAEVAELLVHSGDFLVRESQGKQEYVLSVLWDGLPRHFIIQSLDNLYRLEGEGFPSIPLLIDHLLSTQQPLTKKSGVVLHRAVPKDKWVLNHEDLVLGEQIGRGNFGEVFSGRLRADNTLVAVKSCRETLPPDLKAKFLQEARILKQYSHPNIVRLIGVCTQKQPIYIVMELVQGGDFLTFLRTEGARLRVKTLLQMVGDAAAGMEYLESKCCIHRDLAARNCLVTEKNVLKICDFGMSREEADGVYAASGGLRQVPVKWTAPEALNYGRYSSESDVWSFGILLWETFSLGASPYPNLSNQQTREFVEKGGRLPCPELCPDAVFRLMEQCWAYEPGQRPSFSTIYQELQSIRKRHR", "assay": "Gel-based target engagement in HL-60 neutrophils"}, "[8]": {"molecular_target": "CSNK2A1 (CK2 alpha 1) (Homo sapiens, UniProt P68400)", "sequence (P68400 whole entry)": "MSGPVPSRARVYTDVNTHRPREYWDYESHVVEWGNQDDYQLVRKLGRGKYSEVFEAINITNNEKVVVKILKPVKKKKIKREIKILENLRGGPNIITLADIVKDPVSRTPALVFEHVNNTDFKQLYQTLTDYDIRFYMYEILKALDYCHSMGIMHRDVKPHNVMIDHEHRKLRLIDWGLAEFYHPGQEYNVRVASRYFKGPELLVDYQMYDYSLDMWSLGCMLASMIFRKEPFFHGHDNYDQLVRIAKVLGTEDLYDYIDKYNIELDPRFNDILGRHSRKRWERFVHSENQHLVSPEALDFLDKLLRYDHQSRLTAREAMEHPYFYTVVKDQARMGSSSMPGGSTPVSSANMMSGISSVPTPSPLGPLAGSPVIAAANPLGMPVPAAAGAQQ", "assay": "SelectScreen kinase assay"}, "[9]": {"molecular_target": "PIP4K2A (Homo sapiens, UniProt P48426)", "assay": "SelectScreen kinase assay", "settings": "1 h, 1 μM WEL028, 1 h preincubation"}, "[10]": {"molecular_target": "FGFR1 (Homo sapiens, UniProt P11362)", "assay": "SelectScreen kinase assay"}, "[11]": {"molecular_target": "ERN1 (Homo sapiens, UniProt O75460)", "sequence (O75460 19-977)": "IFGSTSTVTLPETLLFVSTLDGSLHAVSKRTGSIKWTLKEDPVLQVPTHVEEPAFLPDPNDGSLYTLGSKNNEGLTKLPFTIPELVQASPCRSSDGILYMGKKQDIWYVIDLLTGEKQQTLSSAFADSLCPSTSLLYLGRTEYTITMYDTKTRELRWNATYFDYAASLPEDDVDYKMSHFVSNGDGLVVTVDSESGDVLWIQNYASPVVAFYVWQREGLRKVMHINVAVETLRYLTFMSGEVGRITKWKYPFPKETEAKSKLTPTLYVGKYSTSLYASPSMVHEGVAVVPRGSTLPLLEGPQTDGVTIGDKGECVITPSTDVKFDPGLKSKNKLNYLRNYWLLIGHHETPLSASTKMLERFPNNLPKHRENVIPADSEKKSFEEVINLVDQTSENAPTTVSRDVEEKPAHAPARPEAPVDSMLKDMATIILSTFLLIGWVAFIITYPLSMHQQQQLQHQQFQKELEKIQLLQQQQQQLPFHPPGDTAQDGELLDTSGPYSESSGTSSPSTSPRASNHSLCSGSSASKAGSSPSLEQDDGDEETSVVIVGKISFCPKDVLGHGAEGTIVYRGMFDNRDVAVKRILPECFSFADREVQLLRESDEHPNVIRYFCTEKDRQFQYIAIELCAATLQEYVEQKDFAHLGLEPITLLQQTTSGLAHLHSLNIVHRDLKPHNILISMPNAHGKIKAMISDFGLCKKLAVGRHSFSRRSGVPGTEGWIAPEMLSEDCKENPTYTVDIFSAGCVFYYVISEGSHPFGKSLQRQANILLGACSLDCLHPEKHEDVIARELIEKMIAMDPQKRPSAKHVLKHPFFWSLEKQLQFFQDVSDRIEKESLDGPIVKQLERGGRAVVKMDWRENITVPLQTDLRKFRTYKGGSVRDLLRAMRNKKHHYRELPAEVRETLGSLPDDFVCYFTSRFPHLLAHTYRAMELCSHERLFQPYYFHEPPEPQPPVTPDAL", "assay": "SelectScreen kinase assay", "settings": "for Inhibition at 1 µM (%): ERN1, LanthaScreen Binding"}, "[12]": {"molecular_target": "PI4K2A (PI4K2 alpha) (Homo sapiens, UniProt Q9BTU6)", "sequence (Q9BTU6 whole entry)": "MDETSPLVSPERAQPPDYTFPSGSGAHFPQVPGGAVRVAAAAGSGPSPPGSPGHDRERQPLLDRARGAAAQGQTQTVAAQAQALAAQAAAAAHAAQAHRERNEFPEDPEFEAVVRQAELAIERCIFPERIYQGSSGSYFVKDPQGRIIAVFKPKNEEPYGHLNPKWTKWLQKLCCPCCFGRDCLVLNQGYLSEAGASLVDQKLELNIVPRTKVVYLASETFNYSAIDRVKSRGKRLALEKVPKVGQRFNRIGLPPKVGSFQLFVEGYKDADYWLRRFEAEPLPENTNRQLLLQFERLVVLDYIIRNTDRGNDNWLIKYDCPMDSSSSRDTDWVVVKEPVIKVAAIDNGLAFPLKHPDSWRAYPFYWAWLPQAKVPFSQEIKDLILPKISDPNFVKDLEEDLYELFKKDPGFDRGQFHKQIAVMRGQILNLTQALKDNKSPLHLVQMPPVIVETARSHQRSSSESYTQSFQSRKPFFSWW", "assay": "SelectScreen kinase assay"}, "[13]": {"molecular_target": "T2, PDK1 Direct (Homo sapiens, UniProt O15530)", "T2 sequence (O15530 1-556)": "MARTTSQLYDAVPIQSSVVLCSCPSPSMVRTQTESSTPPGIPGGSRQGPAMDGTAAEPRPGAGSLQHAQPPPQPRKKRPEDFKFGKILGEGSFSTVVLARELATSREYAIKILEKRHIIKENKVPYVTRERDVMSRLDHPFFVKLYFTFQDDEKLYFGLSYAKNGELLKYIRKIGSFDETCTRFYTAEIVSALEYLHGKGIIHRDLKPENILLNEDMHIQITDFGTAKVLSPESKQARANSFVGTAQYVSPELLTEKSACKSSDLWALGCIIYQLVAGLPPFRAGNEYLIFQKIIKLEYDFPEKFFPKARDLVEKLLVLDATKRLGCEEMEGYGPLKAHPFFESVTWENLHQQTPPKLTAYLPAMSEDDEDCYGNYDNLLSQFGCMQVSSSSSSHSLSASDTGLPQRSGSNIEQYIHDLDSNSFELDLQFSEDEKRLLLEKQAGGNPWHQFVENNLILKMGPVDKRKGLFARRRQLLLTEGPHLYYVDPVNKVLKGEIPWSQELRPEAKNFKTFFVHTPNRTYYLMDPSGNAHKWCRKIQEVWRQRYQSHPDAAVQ", "assay": "SelectScreen kinase assay"}, "[14]": {"molecular_target": "DYRK4 (Homo sapiens, UniProt Q9NR20)", "sequence (Q9NR20 whole entry)": "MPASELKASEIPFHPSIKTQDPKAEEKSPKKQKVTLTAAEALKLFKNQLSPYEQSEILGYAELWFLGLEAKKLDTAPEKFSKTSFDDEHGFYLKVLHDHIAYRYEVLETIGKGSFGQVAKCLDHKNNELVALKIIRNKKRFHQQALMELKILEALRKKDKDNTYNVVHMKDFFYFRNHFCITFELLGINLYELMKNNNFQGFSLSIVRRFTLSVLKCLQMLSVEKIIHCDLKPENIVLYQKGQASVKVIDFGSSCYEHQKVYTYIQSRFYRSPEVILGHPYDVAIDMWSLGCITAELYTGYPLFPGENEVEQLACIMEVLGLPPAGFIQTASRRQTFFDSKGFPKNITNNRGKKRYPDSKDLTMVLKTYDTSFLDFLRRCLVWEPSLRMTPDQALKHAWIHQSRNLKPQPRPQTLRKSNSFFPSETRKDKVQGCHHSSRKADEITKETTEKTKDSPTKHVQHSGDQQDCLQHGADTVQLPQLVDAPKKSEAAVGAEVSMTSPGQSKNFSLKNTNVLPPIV", "assay": "SelectScreen kinase assay", "format": "biochemical"}, "[15]": {"molecular_target": "IRAK4 (Homo sapiens, UniProt Q9NWZ3)", "assay": "SelectScreen kinase assay"}, "[16]": {"molecular_target": "MAP3K14 (NIK) (Homo sapiens, UniProt Q99558)", "sequence (Q99558 whole entry)": "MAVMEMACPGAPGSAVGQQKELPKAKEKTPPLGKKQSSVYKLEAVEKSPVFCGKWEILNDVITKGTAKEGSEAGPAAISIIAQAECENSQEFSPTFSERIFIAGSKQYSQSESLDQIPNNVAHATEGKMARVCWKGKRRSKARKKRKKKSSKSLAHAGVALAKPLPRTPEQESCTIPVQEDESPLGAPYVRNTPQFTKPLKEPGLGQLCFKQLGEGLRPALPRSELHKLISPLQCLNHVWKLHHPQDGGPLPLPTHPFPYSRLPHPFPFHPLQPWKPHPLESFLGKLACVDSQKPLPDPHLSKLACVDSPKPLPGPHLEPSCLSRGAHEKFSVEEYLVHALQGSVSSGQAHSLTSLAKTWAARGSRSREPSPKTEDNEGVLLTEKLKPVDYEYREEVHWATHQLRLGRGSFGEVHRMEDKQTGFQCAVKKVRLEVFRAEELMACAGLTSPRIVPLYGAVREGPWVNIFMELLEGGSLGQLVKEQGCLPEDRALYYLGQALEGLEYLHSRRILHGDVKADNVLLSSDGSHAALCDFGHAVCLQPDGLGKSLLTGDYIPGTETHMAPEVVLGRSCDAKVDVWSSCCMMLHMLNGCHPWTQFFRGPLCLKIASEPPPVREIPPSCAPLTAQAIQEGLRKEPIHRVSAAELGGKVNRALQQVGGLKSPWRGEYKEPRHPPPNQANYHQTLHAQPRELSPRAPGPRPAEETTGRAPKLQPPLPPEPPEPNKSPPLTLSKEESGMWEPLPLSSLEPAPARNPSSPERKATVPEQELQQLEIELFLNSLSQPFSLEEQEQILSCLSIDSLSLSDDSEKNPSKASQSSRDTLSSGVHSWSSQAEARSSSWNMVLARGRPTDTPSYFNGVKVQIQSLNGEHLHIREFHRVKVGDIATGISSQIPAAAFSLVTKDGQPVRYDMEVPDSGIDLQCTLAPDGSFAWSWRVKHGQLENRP", "assay": "SelectScreen kinase assay"}, "[17]": {"settings": "1 h, 1 μM WEL028, 1 h preincubation"}, "[18]": {"settings": "1 µM, ZLYTE, ATP Km app, listed as WEL028, 1 µM"}, "[19]": {"settings": "read-out: Inhibition at 1 µM (%), 1 µM, ZLYTE, ATP Km app"}},
  "note": "Where “and” joins values, the source holds several entries; their conditions need not be identical. Equal values may be shown once. Read-outs that look alike come from different tables or passages of the source.",
  "data": [
    {"smiles": "C#CCOc1ccc(Nc2ncc(Cl)c(Nc3ccccc3NC(=O)C=C)n2)c(OC)c1", "note": "[Compound 6]", "values": [
      {"measurement": "inhibition at 1 µM", "setting": "[1]; [17]", "result": 43, "unit": "%"},
      {"measurement": "Inhibition at 1 µM (%)", "setting": "[1]; LTK (TYK1), 1 µM, ZLYTE, ATP Km app, listed as WEL028, 1 µM", "result": 37, "unit": "%"},
      {"measurement": "inhibition at 1 µM", "setting": "[1]; read-out: Inhibition at 1 µM (%), LTK (TYK1), 1 µM, ZLYTE, ATP Km app", "result": 48, "unit": "%"},
      {"measurement": "Inhibition at 1 µM (%)", "setting": "[2]; [18]", "result": 8, "unit": "%"},
      {"measurement": "inhibition at 1 µM", "setting": "[2]; [17]", "result": 9, "unit": "%"},
      {"measurement": "inhibition at 1 µM", "setting": "[2]; [19]", "result": 10, "unit": "%"},
      {"measurement": "inhibition at 1 µM", "setting": "[3]; [17]", "result": 26, "unit": "%"},
      {"measurement": "Inhibition at 1 µM (%)", "setting": "[3]; IRAK1, 1 µM, Adapta, ATP Km app, listed as WEL028, 1 µM", "result": 31, "unit": "%"},
      {"measurement": "inhibition at 1 µM", "setting": "[3]; read-out: Inhibition at 1 µM (%), IRAK1, 1 µM, Adapta, ATP Km app", "result": 20, "unit": "%"},
      {"measurement": "IC50", "setting": "[4]", "result": "> 10", "unit": "µM"},
      {"measurement": "Inhibition at 1 µM (%)", "setting": "[4]; [18]", "result": 52, "unit": "%"},
      {"measurement": "inhibition at 1 µM", "setting": "[4]; [17]", "result": 56, "unit": "%"},
      {"measurement": "inhibition at 10 µM", "setting": "[4]; 1 h, log[inhibitor] (M) -5.00, ZLYTE, ATP Km app", "result": 76, "unit": "%"},
      {"measurement": "inhibition at 3.31 µM", "setting": "[4]; 1 h, log[inhibitor] (M) -5.48, ZLYTE, ATP Km app", "result": 80, "unit": "%"},
      {"measurement": "inhibition at 1.12 µM", "setting": "[4]; 1 h, log[inhibitor] (M) -5.95, ZLYTE, ATP Km app", "result": 53, "unit": "%"},
      {"measurement": "inhibition at 0.372 µM", "setting": "[4]; 1 h, log[inhibitor] (M) -6.43, ZLYTE, ATP Km app", "result": 42, "unit": "%"},
      {"measurement": "inhibition at 0.123 µM", "setting": "[4]; 1 h, log[inhibitor] (M) -6.91, ZLYTE, ATP Km app", "result": 23, "unit": "%"},
      {"measurement": "inhibition at 0.00151 µM", "setting": "[4]; 1 h, log[inhibitor] (M) -8.82, ZLYTE, ATP Km app", "result": 6, "unit": "%"},
      {"measurement": "Apparent fold selectivity", "setting": "[4]; IC50 on that kinase divided by IC50 on FES^S700C", "result": "> 238", "unit": "fold"},
      {"measurement": "inhibition at 1 µM", "setting": "[4]; [19]", "result": 60, "unit": "%"},
      {"measurement": "inhibition at 1 µM", "setting": "[5]; [17]", "result": 5, "unit": "%"},
      {"measurement": "Inhibition at 1 µM (%)", "setting": "[5]", "result": 2, "unit": "%"},
      {"measurement": "Inhibition at 1 µM (%)", "setting": "[5]; listed as WEL028, 1 µM", "result": 7, "unit": "%"},
      {"measurement": "inhibition at 1 µM", "setting": "[6]; [17]", "result": 9, "unit": "%"},
      {"measurement": "Inhibition at 1 µM (%)", "setting": "[6]; EEF2K, 1 µM, ZLYTE, ATP Km app, listed as WEL028, 1 µM", "result": 7, "unit": "%"},
      {"measurement": "inhibition at 1 µM", "setting": "[6]; read-out: Inhibition at 1 µM (%), EEF2K, 1 µM, ZLYTE, ATP Km app", "result": 12, "unit": "%"},
      {"measurement": "Inhibition of FES in live neutrophils", "setting": "[7]; 100 nM, 1 h", "result": "complete and selective inhibition of FES"},
      {"measurement": "Relative FES labeling (%)", "setting": "[7]; Figure 7b, replicates, listed as WEL028", "result": "9.291% and 9.41% and 8.966%"},
      {"measurement": "inhibition at 1 µM", "setting": "[8]; [17]", "result": 4, "unit": "%"},
      {"measurement": "Inhibition at 1 µM (%)", "setting": "[8]; CSNK2A1 (CK2 alpha 1), 1 µM, ZLYTE, ATP Km app, listed as WEL028, 1 µM", "result": "9% and 0%"},
      {"measurement": "inhibition at 1 µM", "setting": "[9]", "result": -10, "unit": "%"},
      {"measurement": "inhibition at 1 µM", "setting": "[10]; [17]", "result": 3, "unit": "%"},
      {"measurement": "Inhibition at 1 µM (%)", "setting": "[10]; FGFR1, 1 µM, ZLYTE, ATP Km app, listed as WEL028, 1 µM", "result": "5% and 1%"},
      {"measurement": "inhibition at 1 µM", "setting": "[11]; [17]", "result": 8, "unit": "%"},
      {"measurement": "Inhibition at 1 µM (%)", "setting": "[11]", "result": 13, "unit": "%"},
      {"measurement": "Inhibition at 1 µM (%)", "setting": "[11]; listed as WEL028, 1 µM", "result": 4, "unit": "%"},
      {"measurement": "inhibition at 1 µM", "setting": "[12]; [17]", "result": 0, "unit": "%"},
      {"measurement": "Inhibition at 1 µM (%)", "setting": "[12]; PI4K2A (PI4K2 alpha), 1 µM, Adapta, ATP 10, listed as WEL028, 1 µM", "result": "2% and -2%"},
      {"measurement": "inhibition at 1 µM", "setting": "[13]; [17]", "result": 5, "unit": "%"},
      {"measurement": "Inhibition at 1 µM (%)", "setting": "[13]; PDK1 Direct, 1 µM, ZLYTE, ATP Km app, listed as WEL028, 1 µM", "result": 3, "unit": "%"},
      {"measurement": "inhibition at 1 µM", "setting": "[13]; read-out: Inhibition at 1 µM (%), PDK1 Direct, 1 µM, ZLYTE, ATP Km app", "result": 6, "unit": "%"},
      {"measurement": "inhibition at 1 µM", "setting": "[14]; [17]", "result": 0, "unit": "%"},
      {"measurement": "Inhibition at 1 µM (%)", "setting": "[14]; DYRK4, 1 µM, ZLYTE, ATP Km app, listed as WEL028, 1 µM", "result": "-4% and 4%"},
      {"measurement": "Inhibition (%)", "setting": "[15]; 1 μM WEL028, 1 h preincubation", "result": 0, "unit": "%"},
      {"measurement": "Inhibition at 1 µM (%)", "setting": "[15]; IRAK4, 1 µM, ZLYTE, ATP Km app, listed as WEL028, 1 µM", "result": "-3% and 3%"},
      {"measurement": "inhibition at 1 µM", "setting": "[16]; [17]", "result": 3, "unit": "%"},
      {"measurement": "Inhibition at 1 µM (%)", "setting": "[16]; MAP3K14 (NIK), 1 µM, LanthaScreen Binding, listed as WEL028, 1 µM", "result": "7% and -1%"}
    ]}
  ]
}
